Assay results as given in US20260285855A1, “HETEROARYL DERIVATIVES AS DDRS INHIBITORS” (CHIESI FARMACEUTICI S.P.A., priority 2023, published 2026).

Legend:
[1] = molecular target: T1, DDR1 (Homo sapiens, UniProt Q08345); assay: LanthaScreen Europium Kinase Binding assay, DDR1; settings: 5 nM DDR1, 20 nM Kinase Tracer 178, 1 h at rt; Ki from IC50 by Cheng-Prusoff; read-out: Ki DDR1
T1 construct: purchased Carna Biosciences
Procedure: (§1) DDR1 and DDR2 binding assays were performed using Life Technologies LanthaScreen™ Europium Kinase Binding assay. […] IC50 values were determined in GraphPad Prism 7.0 software, using 4 parameter model: log (inhibitor) vs. response. IC50 values were converted in Ki using the Cheng-Prusoff equation (Ki-IC50/(1+ [Tracer]/Kd).

[2] = molecular target: T2, DDR2 (Homo sapiens, UniProt Q16832); assay: LanthaScreen Europium Kinase Binding assay, DDR2; settings: 5 nM DDR2, 10 nM Kinase Tracer 178, 1 h at rt; Ki from IC50 by Cheng-Prusoff; read-out: Ki DDR2
T2 construct: purchased Life Technologies
T2 sequence (Q16832 22-855): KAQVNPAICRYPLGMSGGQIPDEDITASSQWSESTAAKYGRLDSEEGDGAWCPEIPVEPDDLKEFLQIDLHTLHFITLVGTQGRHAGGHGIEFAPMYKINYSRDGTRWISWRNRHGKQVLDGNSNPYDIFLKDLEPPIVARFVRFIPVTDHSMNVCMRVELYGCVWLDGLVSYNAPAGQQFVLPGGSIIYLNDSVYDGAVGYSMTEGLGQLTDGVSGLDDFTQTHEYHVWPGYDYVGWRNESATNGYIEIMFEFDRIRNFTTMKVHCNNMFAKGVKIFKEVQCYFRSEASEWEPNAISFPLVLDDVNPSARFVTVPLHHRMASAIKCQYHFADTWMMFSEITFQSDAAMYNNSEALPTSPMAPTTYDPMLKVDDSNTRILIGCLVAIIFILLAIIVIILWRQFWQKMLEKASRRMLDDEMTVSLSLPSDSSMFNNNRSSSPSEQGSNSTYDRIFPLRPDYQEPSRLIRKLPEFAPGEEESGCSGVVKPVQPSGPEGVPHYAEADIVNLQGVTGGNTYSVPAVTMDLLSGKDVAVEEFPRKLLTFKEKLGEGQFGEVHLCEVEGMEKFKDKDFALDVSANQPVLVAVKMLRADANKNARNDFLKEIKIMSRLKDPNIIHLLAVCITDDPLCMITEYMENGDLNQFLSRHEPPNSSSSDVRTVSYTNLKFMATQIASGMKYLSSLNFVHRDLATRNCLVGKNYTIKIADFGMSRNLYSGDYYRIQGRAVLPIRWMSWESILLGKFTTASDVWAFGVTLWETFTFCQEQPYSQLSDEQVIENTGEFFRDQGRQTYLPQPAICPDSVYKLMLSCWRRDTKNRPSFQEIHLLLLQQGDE
Procedure: as §1

T1 sequence (Q08345 19-913): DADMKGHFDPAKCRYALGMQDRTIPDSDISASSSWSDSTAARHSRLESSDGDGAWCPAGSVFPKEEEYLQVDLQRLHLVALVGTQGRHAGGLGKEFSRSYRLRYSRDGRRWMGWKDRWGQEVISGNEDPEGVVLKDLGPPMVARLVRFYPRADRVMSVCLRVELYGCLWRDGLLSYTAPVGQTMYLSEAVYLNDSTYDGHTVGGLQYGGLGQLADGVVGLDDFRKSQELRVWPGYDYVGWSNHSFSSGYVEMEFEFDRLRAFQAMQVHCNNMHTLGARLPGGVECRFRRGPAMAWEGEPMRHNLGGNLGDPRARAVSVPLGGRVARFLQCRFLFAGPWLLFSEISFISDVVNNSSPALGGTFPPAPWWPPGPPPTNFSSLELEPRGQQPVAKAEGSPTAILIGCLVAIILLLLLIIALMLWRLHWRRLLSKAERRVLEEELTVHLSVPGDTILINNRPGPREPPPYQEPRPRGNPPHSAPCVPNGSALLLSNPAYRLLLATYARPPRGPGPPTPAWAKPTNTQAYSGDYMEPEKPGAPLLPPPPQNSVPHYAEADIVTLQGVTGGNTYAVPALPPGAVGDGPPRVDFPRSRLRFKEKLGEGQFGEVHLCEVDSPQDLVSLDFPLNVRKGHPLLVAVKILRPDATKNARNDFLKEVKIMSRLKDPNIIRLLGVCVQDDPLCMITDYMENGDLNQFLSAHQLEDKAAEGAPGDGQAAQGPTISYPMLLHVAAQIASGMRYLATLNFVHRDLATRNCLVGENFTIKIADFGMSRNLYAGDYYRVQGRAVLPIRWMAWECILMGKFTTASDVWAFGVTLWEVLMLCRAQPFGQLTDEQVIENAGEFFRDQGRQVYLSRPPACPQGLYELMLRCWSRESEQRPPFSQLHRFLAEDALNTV

Row | Compound | Ki [1] [nM] | Ki [2] [nM]
1 | COc1cccc(NC(=O)NC2CC3(C2)CN(C(=O)c2cnn4ccsc24)C3)c1 [Example 33, 1-(3-methoxyphenyl)-3-(2-(pyrazolo[5,1-b]thiazole-7-carbonyl)-2-azaspiro[3.3]heptan-6-yl)urea] | 5 to 25 | > 100
2 | Cc1ccc(-n2nc(C(C)(C)C)cc2NC(=O)NC2CC3(C2)CN(C(=O)c2cnn4ccn(C)c24)C3)cc1 [Example 43, 1-(3-(tert-butyl)-1-(p-tolyl)-1H-pyrazol-5-yl)-3-(2-(1-methyl-1H-imidazo[1,2-b]pyrazole-7-carbonyl)-2-azaspiro[3.3]heptan-6-yl)urea] | < 5 | 5 to 25
3 | O=C(Nc1cccc(C(F)(F)F)c1)NC1CC2(C1)CN(C(=O)c1ccncc1)C2 [Example 44, 1-(2-isonicotinoyl-2-azaspiro[3.3]heptan-6-yl)-3-(3-(trifluoromethyl)phenyl)urea] | 25 to 100 | 25 to 100
4 | Cn1ccn2ncc(C(=O)N3CC4(CC(NC(=O)Nc5cc(C(F)(F)F)ccc5Cl)C4)C3)c12 [Example 45, 1-(2-chloro-5-(trifluoromethyl)phenyl)-3-(2-(1-methyl-1H-imidazo[1,2-b]pyrazole-7-carbonyl)-2-azaspiro[3.3]heptan-6-yl)urea] | < 5 | < 5
5 | O=C(Nc1cccc(C(F)(F)F)c1)NC1CC2(C1)CN(C(=O)c1ccnc3cc[nH]c13)C2 [Example 46, 1-(2-(1H-pyrrolo[3,2-b]pyridine-7-carbonyl)-2-azaspiro[3.3]heptan-6-yl)-3-(3-(trifluoromethyl)phenyl)urea] | < 5 | < 5
6 | CN(C(=O)Nc1cncc(C(F)(F)F)c1)C1CC2(C1)CN(C(=O)c1cnn3ccsc13)C2 [Example 47, 1-methyl-1-(2-(pyrazolo[5,1-b]thiazole-7-carbonyl)-2-azaspiro[3.3]heptan-6-yl)-3-(5-(trifluoromethyl)pyridin-3-yl)urea] | < 5 | 5 to 25
7 | COc1ccc(OC(F)(F)F)cc1NC(=O)NC1CC2(C1)CN(C(=O)c1ccnc3ccsc13)C2 [Example 48, 1-(2-methoxy-5-(trifluoromethoxy)phenyl)-3-(2-(thieno[3,2-b]pyridine-7-carbonyl)-2-azaspiro[3.3]heptan-6-yl)urea] | < 5 | 5 to 25
8 | O=C(Nc1cncc(C(F)(F)F)c1)NC1CC2(C1)CN(C(=O)c1ccnc3ccsc13)C2 [Example 49, 1-(2-(thieno[3,2-b]pyridine-7-carbonyl)-2-azaspiro[3.3]heptan-6-yl)-3-(5-(trifluoromethyl)pyridin-3-yl)urea] | < 5 | < 5
9 | CN(C(=O)Nc1cccc(CC(F)(F)F)c1)C1CC2(C1)CN(C(=O)c1cnn3ccn(C)c13)C2 [Example 50, 1-methyl-1-(2-(1-methyl-1H-imidazo[1,2-b]pyrazole-7-carbonyl)-2-azaspiro[3.3]heptan-6-yl)-3-(3-(2,2,2-trifluoroethyl)phenyl)urea] | < 5 | 5 to 25
10 | Cn1ccn2ncc(C(=O)N3CC4(CC(NC(=O)Nc5cncc(OC(F)(F)F)c5)C4)C3)c12 [Example 51, 1-(2-(1-methyl-1H-imidazo[1,2-b]pyrazole-7-carbonyl)-2-azaspiro[3.3]heptan-6-yl)-3-(5-(trifluoromethoxy)pyridin-3-yl)urea] | < 5 | 5 to 25
11 | COc1ccc(OC(F)(F)F)cc1NC(=O)N(C)C1CC2(C1)CN(C(=O)c1cnn3ccn(C)c13)C2 [Example 52, 3-(2-methoxy-5-(trifluoromethoxy)phenyl)-1-methyl-1-(2-(1-methyl-1H-imidazo[1,2-b]pyrazole-7-carbonyl)-2-azaspiro[3.3]heptan-6-yl)urea] | < 5 | 5 to 25
12 | CN(C(=O)Nc1cc(C#N)cc(C(F)(F)F)c1)C1CC2(C1)CN(C(=O)c1cnn3ccn(C)c13)C2 [Example 53, 3-(3-cyano-5-(trifluoromethyl)phenyl)-1-methyl-1-(2-(1-methyl-1H-imidazo[1,2-b]pyrazole-7-carbonyl)-2-azaspiro[3.3]heptan-6-yl)urea] | < 5 | 5 to 25
13 | COc1ccc(OC(F)(F)F)cc1NC(=O)NC1CC2(C1)CN(C(=O)c1cnc3cccnn13)C2 [Example 54, 1-(2-(imidazo[1,2-b]pyridazine-3-carbonyl)-2-azaspiro[3.3]heptan-6-yl)-3-(2-methoxy-5-(trifluoromethoxy)phenyl)urea] | < 5 | 5 to 25
14 | COc1ccc(OC(F)(F)F)cc1NC(=O)NC1CC2(C1)CN(C(=O)c1cnn3cccnc13)C2 [Example 55, 1-(2-methoxy-5-(trifluoromethoxy)phenyl)-3-(2-(pyrazolo[1,5-a]pyrimidine-3-carbonyl)-2-azaspiro[3.3]heptan-6-yl)urea] | < 5 | 5 to 25
15 | Cn1ccn2ncc(C(=O)N3CC4(CC(NC(=O)Nc5cc(C(F)(F)F)ccc5OCCN5CCOCC5)C4)C3)c12 [Example 56, 1-(2-(1-methyl-1H-imidazo[1,2-b]pyrazole-7-carbonyl)-2-azaspiro[3.3]heptan-6-yl)-3-(2-(2-morpholinoethoxy)-5-(trifluoromethyl)phenyl)urea] | < 5 | 5 to 25
16 | COc1ccc(OC(F)(F)F)cc1NC(=O)NC1CC2(C1)CN(C(=O)c1cnc3cnccn13)C2 [Example 57, 1-(2-(imidazo[1,2-a]pyrazine-3-carbonyl)-2-azaspiro[3.3]heptan-6-yl)-3-(2-methoxy-5-(trifluoromethoxy)phenyl)urea] | < 5 | 5 to 25

More lines, now with the values ahead:

Row | Ki [1] [nM] | Ki [2] [nM] | Compound
17 | < 5 | < 5 | Cn1ccn2ncc(C(=O)N3CC4(CC(NC(=O)Nc5cccc(CC(F)(F)F)c5)C4)C3)c12 [Example 34, 1-(2-(1-methyl-1H-imidazo[1,2-b]pyrazole-7-carbonyl)-2-azaspiro[3.3]heptan-6-yl)-3-(3-(2,2,2-trifluoroethyl)phenyl)urea]
18 | < 5 | 5 to 25 | CC(C)c1cncc(NC(=O)NC2CC3(C2)CN(C(=O)c2cnn4ccsc24)C3)c1 [Example 35, 1-(5-isopropylpyridin-3-yl)-3-(2-(pyrazolo[5,1-b]thiazole-7-carbonyl)-2-azaspiro[3.3]heptan-6-yl)urea]
19 | < 5 | 5 to 25 | COc1ccc(OC(F)(F)F)cc1NC(=O)NC1CC2(C1)CN(C(=O)c1cnn3ccn(C)c13)C2 [Example 36, 1-(2-methoxy-5-(trifluoromethoxy)phenyl)-3-(2-(1-methyl-1H-imidazo[1,2-b]pyrazole-7-carbonyl)-2-azaspiro[3.3]heptan-6-yl)urea]
20 | < 5 | 5 to 25 | Cn1ccn2ncc(C(=O)N3CC4(CC(NC(=O)Nc5cncc(C(F)(F)F)c5)C4)C3)c12 [Example 37, 1-(2-(1-methyl-1H-imidazo[1,2-b]pyrazole-7-carbonyl)-2-azaspiro [3.3]heptan-6-yl)-3-(5-(trifluoromethyl)pyridin-3-yl)urea]
21 | < 5 | 5 to 25 | COc1ccc(Cl)cc1NC(=O)NC1CC2(C1)CN(C(=O)c1cnn3ccn(C)c13)C2 [Example 38, 1-(5-chloro-2-methoxyphenyl)-3-(2-(1-methyl-1H-imidazo[1,2-b]pyrazole-7-carbonyl)-2-azaspiro[3.3]heptan-6-yl)urea]
22 | < 5 | < 5 | Cn1ccn2ncc(C(=O)N3CC4(CC(NC(=O)Nc5cc(C#N)cc(C(F)(F)F)c5)C4)C3)c12 [Example 39, 1-(3-cyano-5-(trifluoromethyl)phenyl)-3-(2-(1-methyl-1H-imidazo[1,2-b]pyrazole-7-carbonyl)-2-azaspiro[3.3]heptan-6-yl)urea]
23 | < 5 | < 5 | O=C(Nc1cccc(C(F)(F)F)c1)NC1CC2(C1)CN(C(=O)c1cnn3ccccc13)C2 [Example 40, 1-(2-(pyrazolo[1,5-a]pyridine-3-carbonyl)-2-azaspiro[3.3]heptan-6-yl)-3-(3-(trifluoromethyl)phenyl)urea]
24 | < 5 | 5 to 25 | O=C(Nc1cc(CO)cc(C(F)(F)F)c1)NC1CC2(C1)CN(C(=O)c1cnn3ccsc13)C2 [Example 41, 1-(3-(hydroxymethyl)-5-(trifluoromethyl)phenyl)-3-(2-(pyrazolo[5,1-b]thiazole-7-carbonyl)-2-azaspiro[3.3]heptan-6-yl)urea]
25 | < 5 | 5 to 25 | Cn1ccn2ncc(C(=O)N3CC4(CC(NC(=O)Nc5cccc(S(F)(F)(F)(F)F)c5)C4)C3)c12 [Example 42, 1-(2-(1-methyl-1H-imidazo[1,2-b]pyrazole-7-carbonyl)-2-azaspiro[3.3]heptan-6-yl)-3-(3-(pentafluoro-16-sulfaneyl)phenyl)urea]
